# Measured values taken from patent publication US20220218715A1, “NOVEL USE OF PYRROLO-PYRIDINE DERIVATIVE COMPOUND FOR PREVENTION AND/OR TREATMENT OF CANCER” (VORONOI CO., LTD., priority 2019, published 2022).
# System: PC-9 lung cancer cells
# Experiment: Anticancer effect in mouse model with PC-9 lung cancer cells
# Assay type: in vivo, Balb/c Nude Mice
# Conditions: PC-9 model; singular treatment with EGFR targeting drug, PO QD (Gefitinib 10 mg/kg, Osimertinib 3 mg/kg)
# Protocol: The PC-9 cell line was purchased from NanJing Cobioer Biological Technology Co., Ltd. Cells were kept in RPMI-1640 containing 10% FBS, and cultured in a 37° C. humidified cell culture incubator at 5% […]. All animal experiments were carried out according to the Animal Use and Management Guidelines of Shanghai Medicilon Inc. Under sterile conditions, 2×10^6 PC-9 tumor cells (0.1 mL, cell:Matrigel®=1:1) was administered to the right waist of each animal by S.C. administration. Tumor size and animal body weight were measured twice weekly, and clinical symptoms were recorded daily. The mice will be administered individually according to most recent body weight. The tumors were measured using calipers using two measurements, length (a) and width (b). The volume of the tumors was calculated individually as follows, from the two measured diameters of the tumors: tumor volume (mm^3)=(a×b^2)/2.
smiles,measurement,value
"COc1cc2ncnc(Nc3ccc(F)c(Cl)c3)c2cc1OCCCN1CCOCC1 [Gefitinib, reference compound]",cancer cell regrowth during treatment,early regrowth of cancer cells was observed
